The record followed here is US6337089B1, “Microcapsule containing core material and method for producing the same” (Seiwa Kasei Company, Limited, priority 1998, dated 2002).

A short description of this experiment: Analysis Method 8: ultraviolet ray transmittance on surgical tape. Conditions: wave-length of 310 nm; applied amounts differ per sample. Here is the method: A measuring sample was applied on a surgical tape (TRANSPORE TAPE, manufactured by 3M Corp.), this was irradiated with a ultraviolet ray, and the amount of the transmitted light was measured by a SPF analyzer, (UV-1000S, manufactured by LABSPHERE Corp., US). The numerical value in the examples is an average of 40 values. The amount of the sample applied on a surgical tape is 2 μl/cm^2 and a certain amount when measuring SPF value and ultraviolet ray transmittance, respectively.

In turn, `CCCCC(CC)COC(=O)C=Cc1ccc(OC)cc1` (stereo not shown) [2-ethylhexyl p-methoxy-cinnamate, 2-ethylhexyl p-methoxycinnamate] returned a Ultraviolet ray transmittance of 2.2.
